# Results published in paper PMC8086144, “A novel peptide antagonist of the human growth hormone receptor” (The Journal of Biological Chemistry, 2021).
# Target: T1, hPRLR (Homo sapiens, UniProt P16471)
# T1 construct: T84 cells express high levels of hPRLR relative to hGHR (>1300:1); host or cells: T84 (human colon cancer), MALME-3M (human melanoma)
# T1 sequence (P16471 25-622): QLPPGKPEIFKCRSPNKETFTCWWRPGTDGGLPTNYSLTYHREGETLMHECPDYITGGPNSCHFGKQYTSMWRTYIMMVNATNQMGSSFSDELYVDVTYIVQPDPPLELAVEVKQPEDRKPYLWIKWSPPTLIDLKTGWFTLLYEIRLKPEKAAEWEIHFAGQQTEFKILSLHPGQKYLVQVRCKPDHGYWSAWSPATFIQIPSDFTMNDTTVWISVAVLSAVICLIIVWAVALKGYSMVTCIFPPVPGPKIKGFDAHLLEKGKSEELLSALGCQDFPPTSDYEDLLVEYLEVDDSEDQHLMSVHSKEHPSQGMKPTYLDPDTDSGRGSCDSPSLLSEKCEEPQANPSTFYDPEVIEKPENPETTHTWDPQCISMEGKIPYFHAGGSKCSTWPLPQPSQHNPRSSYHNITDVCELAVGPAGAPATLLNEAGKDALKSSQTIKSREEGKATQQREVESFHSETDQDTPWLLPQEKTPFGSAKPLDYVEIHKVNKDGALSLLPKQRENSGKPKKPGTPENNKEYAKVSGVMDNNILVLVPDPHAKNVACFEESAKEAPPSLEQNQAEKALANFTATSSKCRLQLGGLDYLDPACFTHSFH
# Assay: hPRL-induced pSTAT5 in MALME-3M cells, Western blot
# Type: cell-based
# Conditions: 2.5 nM hPRL, 20 min, S1H concentration not given
# Procedure: SK-MEL-28, MALME-3M, and T84 cells were grown and maintained in Eagle's Minimal Essential Medium. IM9 and L cells were grown in RPMI-1640 media and Dulbecco's modified Eagle's medium, respectively. All growth media was supplemented with 10% fetal bovine serum and 1× antibiotic-antimycotic […] solution. Cells were grown at 37 °C under a 5% CO2 atmosphere in a humidified incubator, and growth media was replaced every 48 h during incubation. No hGH was present in or added to the growth media unless specifically indicated. […]
# Following treatment, the cells were harvested at the indicated time points, and the total protein was extracted. […] Sample protein concentration was quantified using a Bradford assay with bovine serum albumin as the protein standard. Absorbance at 595 nm was measured using a Spectramax 250 multimode plate reader (Molecular Devices) and processed using SoftmaxPro v4.7.1 software.
# Cytosolic fractions from treated cells were thawed on ice, and 80 μg protein was loaded onto polyacrylamide gels for separation by SDS-PAGE. […] Chemiluminescence signals were detected using a GelDoc (BioRad) fluorescence imager. […]
smiles,measurement,value
CC[C@H](C)[C@H](NC(=O)[C@H](Cc1ccc(O)cc1)NC(C)=O)C(=O)N1CCC[C@H]1C(=O)N[C@@H](CCCCN)C(=O)N[C@@H](CCC(=O)O)C(=O)N[C@@H](CCC(N)=O)C(=O)N[C@@H](CCCCN)C(=O)N[C@@H](Cc1ccc(O)cc1)C(=O)N[C@@H](CO)C(=O)N[C@@H](Cc1ccccc1)C(=O)N[C@@H](CC(C)C)C(=O)N[C@@H](CCC(N)=O)C(=O)N[C@@H](CC(N)=O)C(=O)N1CCC[C@H]1C(=O)N[C@@H](CCC(N)=O)C(=O)N[C@H](C(N)=O)[C@@H](C)O [S1H],inhibition of hPRL-induced pSTAT5,49%
